Assay results taken from US9505798B2, “Steroid compounds as RORyt modulators and uses thereof” (New York University, priority 2010, dated 2016).

Legend:
[1] = tested on: gut (large intestine) Th17 cells; assay: DSS-induced model relating to intestinal bowel diseases; format: in vivo, mouse; set-up: dose or concentration left out as unconfirmed; conditions: IP daily, day 7
Protocol: Th17 cells were induced by Dextran Sulfate Sodium (DSS) treatment, a chemical agent that causes intestinal epithelial injury, and thus, is often used to generate an animal model that mimics many aspects of intestinal bowel diseases. […] Gut associated mononuclear cells were collected and their cytokine expression was analyzed on day 7. Representative FACS plots (gated on CD4^+CD3^+TCRβ^+CD19^− cells) from each group are shown (left).
B6 wild-type mice received 2% DSS (Dextran Sulfate Sodium) ad libitum in drinking water for 7 days. […] Gut associated cells were collected and activated for cytokine straining on day 7. To isolate cells from the small intestinal lamina propria, Peyer's patches, fat and mesenterium were removed before opening the intestine longitudinally. The tissue was cut into 2 cm pieces and washed in calcium- and magnesium-free PBS (Gibco). The tissue was then washed for 10 minutes in cold 1 mM DTT (Sigma) in PBS then two 10 minute washes in 30 mM EDTA, 10 mM HEPES (Gibco) in PBS at 37° C. The tissue was washed with complete RPMI and digested for 1.5 hr at 37° C. in 5% CO2, humidified atmosphere, in complete RPMI containing 100 U ml-1 type VIII collagenase (Sigma) and 150 μg ml—1 DNaseI (Sigma). After digestion, cells were eluted from the tissue by shaking. Live cells were isolated using a Percoll (Pharmacia) gradient. […]

VP16 = target: T1, VP16 (Human herpesvirus 1, UniProt P06492); assay: S2 cell VP16 luciferase reporter; format: cell-based, herpes simplex virus; conditions: 10 μM, FIG. 1c
T1 construct: herpes simplex virus VP16 (amino acids 413 to end); expressed in transfected cells
T1 sequence (P06492 413-490): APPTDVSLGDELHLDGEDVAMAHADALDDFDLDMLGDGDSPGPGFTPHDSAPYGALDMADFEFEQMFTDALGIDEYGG
Source text: (§1) The Drosophila S2 cell line was originally purchased from Invitrogen and was maintained in Schneider's medium supplemented with 10% heat-inactivated bovine fetal calf serum and antibiotics (Invitrogen). Gal4 DNA binding domain (G4 DBD) corresponding to amino acids 1 through 147 of Gal4 protein was PCR amplified to make a fusion construct with mouse RORγt (amino acids 79 to the carboxyl terminal end) lacking its DNA binding domain. The resulting chimeric gene was subcloned into the copper inducible pMT/V5-His A vector (Invitrogen). In a similar manner, Gal4 fusion constructs were prepared with mouse RORα (amino acids 142 to end) or Drosophila DHR3 (amino acids 120 to end). Coding sequences for firefly luciferase (Promega) were PCR amplified and subcloned into pUAST vector containing Gal4 binding enhancer sequences. Renilla luciferase construct under the polIII promoter was obtained from Dr. Dasgupta's laboratory (NYU medical center). In order to generate stable cell lines, cells were co-transfected with pMT-G4 DBD-RORγt, pMT-G4 DBD-RORα, pMT-G4 DBD-DHR3, or pMT-G4 DBDVP16 and pHygro plasmids (Invitrogen) and screened for resistant colonies in the presence of hygromycin (0.3 mg/mL). […]

[2] = tested on: pre-differentiated mouse Th17 cells; assay: Pre-differentiated mouse Th17 cells from MOG-immunized mice, in vitro; format: cell-based; conditions: expanded Th17 cells from immunized mice, 10 μM
Source text: Mononuclear cells were collected from draining lymph nodes of wild-type or IL-23RGFP knock-in heterozygous mice 7 days after MOG(35-55)/CFA injection.

DHR3 = target: T2, DHR3 (Drosophila melanogaster, UniProt P31396); assay: S2 cell DHR3 luciferase reporter; format: cell-based; conditions: 10 μM, FIG. 1c
T2 construct: Drosophila DHR3 (amino acids 120 to end); expressed in transfected cells
T2 sequence (P31396 120-487 limits assumed): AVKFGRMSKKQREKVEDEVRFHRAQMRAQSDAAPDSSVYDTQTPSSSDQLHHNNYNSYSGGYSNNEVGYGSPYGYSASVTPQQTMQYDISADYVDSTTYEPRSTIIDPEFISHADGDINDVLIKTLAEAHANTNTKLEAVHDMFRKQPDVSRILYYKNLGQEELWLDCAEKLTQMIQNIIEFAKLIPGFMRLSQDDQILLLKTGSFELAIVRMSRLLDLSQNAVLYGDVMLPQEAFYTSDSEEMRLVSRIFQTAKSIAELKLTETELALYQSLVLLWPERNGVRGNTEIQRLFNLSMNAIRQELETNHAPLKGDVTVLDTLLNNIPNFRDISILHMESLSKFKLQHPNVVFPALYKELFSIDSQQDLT
Source text: as §1

C[C@H]1O[C@@H](O[C@H]2[C@@H](O)C[C@H](O[C@H]3[C@@H](O)C[C@H](O[C@H]4CC[C@@]5(C)[C@H](CC[C@@H]6[C@@H]5C[C@@H](O)[C@]5(C)[C@@H](C7=CC(=O)OC7)CC[C@]65O)C4)O[C@@H]3C)O[C@@H]2C)C[C@H](O)[C@@H]1O [Digoxin]
number of gut (large intestine) Th17 cells [1]: reduction | effect on transcriptional activity of VP16 (VP16): no effect | IL-23R and IL-17a expression [2]: inhibited both IL-23R (FIG. 4a) and IL-17a (FIG. 4b, bottom) expression without affecting IFN-γ expression | effect on transcriptional activity of DHR3 (DHR3): no effect
